Experimental findings from patent US10155768B2, “Fused pyrimidine compound or salt thereof” (TAIHO PHARMACEUTICAL CO., LTD., priority 2016, dated 2018) are described below.

One data set can be described thus: Evaluation of stability in liver microsome. The following applies: mouse liver microsome 0.25 mg/mL, 1 μM test compound, 37° C. for 30 minutes. A general note: Liver microsomes are vesicles of endoplasmic reticulum, rich in cytochrome P450 enzymes.
Description: Solutions of the test compounds in DMSO/acetonitrile (the final concentration of each test compound was 1 μM, the final concentration of DMSO was 0.01%, and the final concentration of acetonitrile was 1%) were individually added to a liver microsome mixture solution (mouse liver microsome with a final concentration of 0.25 mg/mL, a potassium phosphate buffer with a final concentration of 100 mM, and magnesium chloride with a final concentration of 3 mM), and each mixture was pre-incubated at 37° C. for 5 minutes. […] After incubation at 37° C. for 30 minutes, a double amount of ethanol was added thereto to terminate the reaction, thereby obtaining post-reaction samples. A double amount of ethanol was added to each of the remaining mixture solutions, and a NADPH-generating system was further added thereto, thereby obtaining pre-reaction samples. The pre-reaction samples and post-reaction samples were centrifuged at 2000×g, and their supernatant was filtered through a glass filter. Each filtrate was then introduced into LC-MS/MS, and MS/MS peaks of the test compounds were detected. From the ratio of the post-reaction MS/MS peak to the pre-reaction MS/MS peak of the test compounds, the percentage of the remaining test compounds (remaining %) was calculated.
With `Nc1ncnc2c1c(C(=O)Nc1ccc(Oc3ccccc3)cc1)cn2C1CCCC1` [Compound 2 of Comparative Examples, 4-amino-7-cyclopentyl-N-(4-phenoxyphenyl)-7H-pyrrolo[2,3-d]pyrimidine-5-carboxamide, reference compound], the “Remaining (%)” value is listed as 0%.
The same measure, in the same setting: the result for `COCc1ccc(NC(=O)c2cn(C(C)(C)C)c3ncnc(N)c23)cc1` [Example 2, 4-amino-7-(tert-butyl)-N-(4-(methoxymethyl)phenyl)-7H-pyrrolo[2,3-d]pyrimidine-5-carboxamide] reads 64%; that for `COCc1ccc(NC(=O)c2cn(C(C)(C)CF)c3ncnc(N)c23)cc1` [Example 26, 4-amino-7-(1-fluoro-2-methylpropan-2-yl)-N-(4-(methoxymethyl)phenyl)-7H-pyrrolo[2,3-d]pyrimidine-5-carboxamide], 60%; that for `COCc1ccc(NC(=O)c2cn(C(C)(C)C)c3ncnc(N)c23)cc1F` [Example 30, 4-amino-7-(tert-butyl)-N-(3-fluoro-4-(methoxymethyl)phenyl)-7H-pyrrolo[2,3-d]pyrimidine-5-carboxamide], 54%.
On the same count and under the same terms, with `COCc1ccc(NC(=O)c2cn(C(C)(C)C)c3ncnc(N)c23)c(OC)c1` [Example 33, 4-amino-7-(tert-butyl)-N-(2-methoxy-4-(methoxymethyl)phenyl)-7H-pyrrolo[2,3-d]pyrimidine-5-carboxamide] the figure was 57%.
On the same count and under the same terms, the result for `[2H]C([2H])([2H])OCc1ccc(NC(=O)c2cn(C(C)(C)C)c3ncnc(N)c23)cc1` [Example 35, 4-amino-7-(tert-butyl)-N-(4-((methoxy-d3)-methyl)phenyl)-7H-pyrrolo[2,3-d]pyrimidine-5-carboxamide] reads 58%.
Take `COCc1ccc(NC(=O)c2cn(C3(C)CC3)c3ncnc(N)c23)cc1` [Example 36, 4-amino-N-(4-(methoxymethyl)phenyl)-7-(1-methylcyclopropyl)-7H-pyrrolo[2,3-d]pyrimidine-5-carboxamide]: the “Remaining (%)” value worked out at 73%.
On the same count and under the same terms, with `COCc1ccc(NC(=O)c2cn(C(C)(C)CF)c3ncnc(N)c23)cc1F` [Example 41, 4-amino-7-(1-fluoro-2-methylpropan-2-yl)-N-(3-fluoro-4-(methoxymethyl)phenyl)-7H-pyrrolo[2,3-d]pyrimidine-5-carboxamide] the figure was 56%; with `COCc1ccc(NC(=O)c2cn(C3(CF)CC3)c3ncnc(N)c23)cc1` [Example 45, 4-amino-7-(1-(fluoromethyl)cyclopropyl)-N-(4-(methoxymethyl)phenyl)-7H-pyrrolo[2,3-d]pyrimidine-5-carboxamide], 66%; with `COCc1ccc(NC(=O)c2cn(C3(C(F)F)CC3)c3ncnc(N)c23)cc1` [Example 46, 4-amino-7-(1-(difluoromethyl)cyclopropyl)-N-(4-(methoxymethyl)phenyl)-7H-pyrrolo[2,3-d]pyrimidine-5-carboxamide], 65%.
Same read-out and setting: with `COCc1ccc(NC(=O)c2cn(C3(C)CC3)c3ncnc(N)c23)cc1F` [Example 48, 4-amino-N-(3-fluoro-4-(methoxymethyl)phenyl)-7-(1-methylcyclopropyl)-7H-pyrrolo[2,3-d]pyrimidine-5-carboxamide] the figure was 58%; with `COCc1ccc(NC(=O)c2cn(C3(C4CC4)CC3)c3ncnc(N)c23)cc1` [Example 49, 7-{[1,1-bi(cyclopropane)]-1-yl}-4-amino-N-(4-(methoxymethyl)phenyl)-7H-pyrrolo[2,3-d]pyrimidine-5-carboxamide], 67%.
As for `COCc1ccc(NC(=O)c2cn(C(C)(C)C(F)F)c3ncnc(N)c23)cc1` [Example 50, 4-amino-7-(1,1-difluoro-2-methylpropan-2-yl)-N-(4-(methoxymethyl)phenyl)-7H-pyrrolo[2,3-d]pyrimidine-5-carboxamide], the “Remaining (%)” value is reported as 53%.
On to `COCc1ccc(NC(=O)c2c(Br)n(C3(C)CC3)c3ncnc(N)c23)cc1` [Example 55, 4-amino-6-bromo-N-[4-(methoxymethyl)phenyl]-7-(1-methylcyclopropyl)-7H-pyrrolo[2,3-d]pyrimidine-5-carboxamide], for which the “Remaining (%)” value turned out to be 56%.
Same read-out and setting: the result for `COCc1ccc(NC(=O)c2c(Cl)n(C3(C)CC3)c3ncnc(N)c23)cc1` [Example 56, 4-amino-6-chloro-N-[4-(methoxymethyl)phenyl]-7-(1-methylcyclopropyl)-7H-pyrrolo[2,3-d]pyrimidine-5-carboxamide] reads 62%; that for `COCc1ccc(NC(=O)c2c(OC)n(C3(C)CC3)c3ncnc(N)c23)cc1` [Example 57, 4-amino-6-methoxy-N-[4-(methoxymethyl)phenyl]-7-(1-methylcyclopropyl)-7H-pyrrolo[2,3-d]pyrimidine-5-carboxamide], 86%; that for `COCc1ccc(NC(=O)c2c(C)n(C(C)(C)C)c3ncnc(N)c23)cc1` [Example 60, 4-amino-7-(tert-butyl)-N-(4-(methoxymethyl)phenyl)-6-methyl-7H-pyrrolo[2,3-d]pyrimidine-5-carboxamide], 81%.
Still for that read-out and setting: with `COCc1ccc(NC(=O)c2c(-c3cccnc3)n(C3(C)CC3)c3ncnc(N)c23)cc1` [Example 61, 4-amino-N-(4-(methoxymethyl)phenyl)-7-(1-methylcyclopropyl)-6-(pyridin-3-yl)-7H-pyrrolo[2,3-d]pyrimidine-5-carboxamide] the figure was 81%; with `COCc1ccc(NC(=O)c2c(C(C)=O)n(C3(C)CC3)c3ncnc(N)c23)cc1` [Example 64, 6-acetyl-4-amino-N-(4-(methoxymethyl)phenyl)-7-(1-methylcyclopropyl)-7H-pyrrolo[2,3-d]pyrimidine-5-carboxamide], 89%; with `C=Cc1c(C(=O)Nc2ccc(COC)cc2)c2c(N)ncnc2n1C1(C)CC1` [Example 65, 4-amino-N-(4-(methoxymethyl)phenyl)-7-(1-methylcyclopropyl)-6-vinyl-7H-pyrrolo[2,3-d]pyrimidine-5-carboxamide], 79%.
On the same count and under the same terms, with `COCc1ccc(NC(=O)c2c(F)n(C3(C)CC3)c3ncnc(N)c23)cc1` [Example 69, 4-amino-6-fluoro-N-(4-(methoxymethyl)phenyl)-7-(1-methylcyclopropyl)-7H-pyrrolo[2,3-d]pyrimidine-5-carboxamide] the figure was 69%; with `CC(C)(C)n1cc(C(=O)Nc2ccc(-c3cc[nH]n3)cc2)c2c(N)ncnc21` [Example 80, N-(4-(1H-pyrazol-3-yl)phenyl)-4-amino-7-(tert-butyl)-7H-pyrrolo[2,3-d]pyrimidine-5-carboxamide], 50%.
As to `COCc1ccc(NC(=O)c2c(C#CCC(C)(C)O)n(C3(C)CC3)c3ncnc(N)c23)cc1` [Example 86, 4-amino-6-(4-hydroxy-4-methylpent-1-yn-1-yl)-N-[4-(methoxymethyl)phenyl]-7-(1-methylcyclopropyl)-7H-pyrrolo[2,3-d]pyrimidine-5-carboxamide], the “Remaining (%)” value amounted to 66%.
Same read-out and setting: the result for `COCc1ccc(NC(=O)c2c(C#CC3CCOCC3)n(C3(C)CC3)c3ncnc(N)c23)cc1` [Example 87, 4-amino-N-[4-(methoxymethyl)phenyl]-7-(1-methylcyclopropyl)-6-((tetrahydro-2H-pyran-4-yl)ethynyl)-7H-pyrrolo[2,3-d]pyrimidine-5-carboxamide] reads 63%.
On the same count and under the same terms, the result for `COCc1ccc(NC(=O)c2c(C#CCN3CCCC3)n(C3(C)CC3)c3ncnc(N)c23)cc1` [Example 88, 4-amino-N-[4-(methoxymethyl)phenyl]-7-(1-methylcyclopropyl)-6-(3-(pyrrolidin-1-yl)prop-1-yn-1-yl)-7H-pyrrolo[2,3-d]pyrimidine-5-carboxamide] reads 59%; that for `COCc1ccc(NC(=O)c2c(OC[C@H]3CCCO3)n(C3(C)CC3)c3ncnc(N)c23)cc1` [Example 89, (R)-4-amino-N-[4-(methoxymethyl)phenyl]-7-(1-methylcyclopropyl)-6-((tetrahydrofuran-2-yl)methoxy)-7H-pyrrolo[2,3-d]pyrimidine-5-carboxamide], 69%; that for `COCc1ccc(NC(=O)c2c(C#Cc3cnn(C)c3)n(C3(C)CC3)c3ncnc(N)c23)cc1` [Example 90, 4-amino-N-[4-(methoxymethyl)phenyl]-6-((1-methyl-1H-pyrazol-4-yl)ethynyl)-7-(1-methylcyclopropyl)-7H-pyrrolo[2,3-d]pyrimidine-5-carboxamide], 67%.
Same read-out and setting: with `COCc1ccc(NC(=O)c2c(C#Cc3cnc4cccnn34)n(C3(C)CC3)c3ncnc(N)c23)cc1` [Example 91, 4-amino-6-(imidazo[1,2-b]pyridazin-3-ylethynyl)-N-[4-(methoxymethyl)phenyl]-7-(1-methylcyclopropyl)-7H-pyrrolo[2,3-d]pyrimidine-5-carboxamide] the figure was 65%; with `COCc1ccc(NC(=O)c2c(C#Cc3ccn(C)n3)n(C3(C)CC3)c3ncnc(N)c23)cc1` [Example 92, 4-amino-N-(4-(methoxymethyl)phenyl)-6-((1-methyl-1H-pyrazol-3-yl)ethynyl)-7-(1-methylcyclopropyl)-7H-pyrrolo[2,3-d]pyrimidine-5-carboxamide], 67%; with `COCc1ccc(NC(=O)c2c(C#Cc3cncn3C)n(C3(C)CC3)c3ncnc(N)c23)cc1` [Example 93, 4-amino-N-(4-(methoxymethyl)phenyl)-6-((1-methyl-1H-imidazol-5-yl)ethynyl)-7-(1-methylcyclopropyl)-7H-pyrrolo[2,3-d]pyrimidine-5-carboxamide], 53%.
Turning to `COCc1ccc(NC(=O)c2c(C#Cc3cccnc3)n(C3(C)CC3)c3ncnc(N)c23)cc1` [Example 94, 4-amino-N-[4-(methoxymethyl)phenyl]-7-(1-methylcyclopropyl)-6-(pyridin-3-ylethynyl)-7H-pyrrolo[2,3-d]pyrimidine-5-carboxamide], the “Remaining (%)” value turned out to be 60%.

The same data set, now with this note: mouse liver microsome, 1 μM, 37° C., 30 minutes.
For `Nc1ncnc2c1c(C(=O)Nc1ccc(Oc3ccccc3)cc1)cn2C1CCCC1` [Compound 2 of Comparative Examples, 4-amino-7-cyclopentyl-N-(4-phenoxyphenyl)-7H-pyrrolo[2,3-d]pyrimidine-5-carboxamide, reference compound], the “percentage of the remaining test compounds (remaining %)” value is given as 0%.
